Assay results reported in publication PMC6437697 (Journal of Medicinal Chemistry, 2019).

Assays:
Assay in all cases: KINOMEscan
Type in all cases: binding
Details in all cases: read-out: % control activity remaining
EPHB1 = target: T1, EPHB1 (Homo sapiens, UniProt P54762)
T1 construct: purchased Eurofins DiscoverX KINOMEscan
T1 sequence (P54762 18-984): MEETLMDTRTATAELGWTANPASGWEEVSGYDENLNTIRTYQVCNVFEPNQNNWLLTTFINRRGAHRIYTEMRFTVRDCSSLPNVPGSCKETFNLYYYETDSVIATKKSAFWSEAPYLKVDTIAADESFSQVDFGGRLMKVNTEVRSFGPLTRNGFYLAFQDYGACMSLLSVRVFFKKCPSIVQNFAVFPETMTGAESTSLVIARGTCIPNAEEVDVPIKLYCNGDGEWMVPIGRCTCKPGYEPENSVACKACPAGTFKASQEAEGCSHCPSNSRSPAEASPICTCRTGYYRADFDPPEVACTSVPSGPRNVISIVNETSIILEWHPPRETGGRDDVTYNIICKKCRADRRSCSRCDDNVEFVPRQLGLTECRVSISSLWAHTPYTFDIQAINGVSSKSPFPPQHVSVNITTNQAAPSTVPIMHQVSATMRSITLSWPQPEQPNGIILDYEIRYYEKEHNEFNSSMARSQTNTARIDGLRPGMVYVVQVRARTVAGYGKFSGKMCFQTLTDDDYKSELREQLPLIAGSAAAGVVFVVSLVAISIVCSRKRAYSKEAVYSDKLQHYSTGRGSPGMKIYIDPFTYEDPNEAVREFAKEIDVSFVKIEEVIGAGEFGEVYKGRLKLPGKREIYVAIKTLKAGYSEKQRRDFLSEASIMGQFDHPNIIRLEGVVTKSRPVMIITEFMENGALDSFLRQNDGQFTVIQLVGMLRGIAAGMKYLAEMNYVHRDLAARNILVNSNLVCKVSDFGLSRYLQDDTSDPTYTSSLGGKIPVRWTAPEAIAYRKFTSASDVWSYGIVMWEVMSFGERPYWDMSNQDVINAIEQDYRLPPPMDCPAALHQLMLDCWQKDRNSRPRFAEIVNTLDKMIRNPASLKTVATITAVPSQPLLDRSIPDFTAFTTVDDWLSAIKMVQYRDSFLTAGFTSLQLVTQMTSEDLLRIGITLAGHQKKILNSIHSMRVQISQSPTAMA

GRK1 = target: T2, GRK1 (Homo sapiens, UniProt Q15835)
T2 construct: purchased Eurofins DiscoverX KINOMEscan
T2 sequence (Q15835 1-563): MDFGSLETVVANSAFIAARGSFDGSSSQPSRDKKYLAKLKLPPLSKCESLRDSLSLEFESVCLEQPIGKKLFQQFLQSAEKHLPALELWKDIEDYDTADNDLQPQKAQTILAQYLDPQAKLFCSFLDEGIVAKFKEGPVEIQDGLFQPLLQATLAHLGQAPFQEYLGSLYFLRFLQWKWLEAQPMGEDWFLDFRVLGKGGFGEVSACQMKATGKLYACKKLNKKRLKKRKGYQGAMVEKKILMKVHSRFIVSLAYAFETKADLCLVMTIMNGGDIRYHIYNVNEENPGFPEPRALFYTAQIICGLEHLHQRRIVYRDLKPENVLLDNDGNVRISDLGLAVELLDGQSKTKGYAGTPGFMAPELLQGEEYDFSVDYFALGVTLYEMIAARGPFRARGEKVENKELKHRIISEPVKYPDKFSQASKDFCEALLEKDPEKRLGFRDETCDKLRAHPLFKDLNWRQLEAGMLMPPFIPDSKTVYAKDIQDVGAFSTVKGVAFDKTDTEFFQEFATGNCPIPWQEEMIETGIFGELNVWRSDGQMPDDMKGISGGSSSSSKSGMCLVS

LKB1 = target: T3, LKB1 (Homo sapiens, UniProt Q15831)
T3 construct: purchased Eurofins DiscoverX KINOMEscan
T3 sequence (Q15831 1-433): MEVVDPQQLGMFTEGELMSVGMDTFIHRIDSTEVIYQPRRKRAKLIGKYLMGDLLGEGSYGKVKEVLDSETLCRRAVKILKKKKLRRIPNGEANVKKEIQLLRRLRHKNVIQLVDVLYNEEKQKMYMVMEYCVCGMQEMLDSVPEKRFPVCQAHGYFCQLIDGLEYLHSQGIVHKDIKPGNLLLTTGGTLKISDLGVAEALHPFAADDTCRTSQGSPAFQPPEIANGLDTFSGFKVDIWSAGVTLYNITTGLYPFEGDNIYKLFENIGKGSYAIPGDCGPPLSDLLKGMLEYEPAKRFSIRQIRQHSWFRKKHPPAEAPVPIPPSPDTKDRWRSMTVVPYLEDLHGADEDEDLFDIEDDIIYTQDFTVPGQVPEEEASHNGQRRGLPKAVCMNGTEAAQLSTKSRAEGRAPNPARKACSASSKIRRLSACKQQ

PIK3CA = target: T4, PIK3CA (Homo sapiens, UniProt P42336)
T4 construct: purchased Eurofins DiscoverX KINOMEscan

TAOK3 = target: T5, TAOK3 (Homo sapiens, UniProt Q9H2K8)
T5 construct: purchased Eurofins DiscoverX KINOMEscan
T5 sequence (Q9H2K8 1-898): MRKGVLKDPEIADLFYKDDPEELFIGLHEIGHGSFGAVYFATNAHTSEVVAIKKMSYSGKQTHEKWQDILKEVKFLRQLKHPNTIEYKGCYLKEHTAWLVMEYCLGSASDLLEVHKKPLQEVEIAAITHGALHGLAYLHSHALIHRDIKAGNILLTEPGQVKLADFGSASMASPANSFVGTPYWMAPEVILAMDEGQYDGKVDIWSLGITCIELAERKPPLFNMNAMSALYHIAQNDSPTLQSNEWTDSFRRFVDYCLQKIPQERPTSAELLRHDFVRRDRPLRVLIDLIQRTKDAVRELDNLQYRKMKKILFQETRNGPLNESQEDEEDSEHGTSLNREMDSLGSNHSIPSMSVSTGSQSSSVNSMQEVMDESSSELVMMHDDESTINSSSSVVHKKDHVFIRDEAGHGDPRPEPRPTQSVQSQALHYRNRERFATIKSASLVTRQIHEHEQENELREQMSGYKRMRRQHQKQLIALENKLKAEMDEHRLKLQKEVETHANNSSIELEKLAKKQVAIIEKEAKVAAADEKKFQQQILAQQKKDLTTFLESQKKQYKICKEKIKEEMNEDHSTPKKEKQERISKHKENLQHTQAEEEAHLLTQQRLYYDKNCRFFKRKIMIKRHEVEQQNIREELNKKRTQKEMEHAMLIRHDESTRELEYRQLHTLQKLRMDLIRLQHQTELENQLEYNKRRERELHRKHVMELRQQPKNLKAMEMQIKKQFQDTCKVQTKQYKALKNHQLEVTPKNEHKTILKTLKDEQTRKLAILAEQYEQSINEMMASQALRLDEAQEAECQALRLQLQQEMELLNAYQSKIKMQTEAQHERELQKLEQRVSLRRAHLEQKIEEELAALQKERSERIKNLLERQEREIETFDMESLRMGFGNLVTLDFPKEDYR

T4 sequence (P42336 whole entry): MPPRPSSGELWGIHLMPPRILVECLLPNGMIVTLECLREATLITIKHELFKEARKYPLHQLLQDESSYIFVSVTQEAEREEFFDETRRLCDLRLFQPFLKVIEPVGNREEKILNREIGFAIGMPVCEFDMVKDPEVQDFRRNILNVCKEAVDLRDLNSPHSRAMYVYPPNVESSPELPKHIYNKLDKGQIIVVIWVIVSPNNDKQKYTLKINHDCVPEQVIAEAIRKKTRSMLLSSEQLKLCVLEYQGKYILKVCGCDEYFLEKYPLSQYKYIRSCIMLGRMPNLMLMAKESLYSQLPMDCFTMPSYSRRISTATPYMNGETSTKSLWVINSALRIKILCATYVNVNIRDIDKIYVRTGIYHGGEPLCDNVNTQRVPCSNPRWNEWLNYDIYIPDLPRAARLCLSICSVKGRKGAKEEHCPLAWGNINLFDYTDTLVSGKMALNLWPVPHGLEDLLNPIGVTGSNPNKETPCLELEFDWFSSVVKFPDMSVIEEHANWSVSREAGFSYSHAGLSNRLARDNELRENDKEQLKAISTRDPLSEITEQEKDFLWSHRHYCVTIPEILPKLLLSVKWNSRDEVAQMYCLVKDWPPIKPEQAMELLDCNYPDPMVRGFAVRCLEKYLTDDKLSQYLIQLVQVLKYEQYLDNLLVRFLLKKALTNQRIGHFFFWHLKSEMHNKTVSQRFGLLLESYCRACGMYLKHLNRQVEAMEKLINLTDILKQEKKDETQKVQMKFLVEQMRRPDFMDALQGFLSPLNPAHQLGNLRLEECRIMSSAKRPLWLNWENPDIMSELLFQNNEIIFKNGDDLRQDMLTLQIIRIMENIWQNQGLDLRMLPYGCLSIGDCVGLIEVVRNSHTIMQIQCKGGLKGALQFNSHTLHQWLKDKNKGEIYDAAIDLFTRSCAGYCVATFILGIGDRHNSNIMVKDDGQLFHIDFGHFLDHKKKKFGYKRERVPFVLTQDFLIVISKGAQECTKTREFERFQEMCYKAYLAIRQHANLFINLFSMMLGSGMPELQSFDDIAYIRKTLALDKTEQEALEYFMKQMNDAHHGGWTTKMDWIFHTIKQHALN

Row | SMILES | remaining binding at 1 µM (EPHB1) | remaining binding at 1 µM (GRK1) | remaining binding at 1 µM (LKB1) | remaining binding at 1 µM (PIK3CA) | remaining binding at 1 µM (TAOK3)
1 | Clc1cc(NCC2CC2)c2ncc(-c3ccc4[nH]ncc4c3)n2n1 [compound 2, 6-Chloro-N-(cyclopropylmethyl)-3-(1H-indazol-5-yl)imidazo[1,2-b]pyridazin-8-amine] | 100% | 100% | 52% | 72% | 92%
2 | O=C(CN1CCOCC1)N[C@H]1CC[C@H](Nc2cc(Cl)nn3c(-c4ccc5[nH]ncc5c4)cnc23)CC1 [compound 26] | 89% | 80% | 98% | 97% | 91%
3 | CN1CCC(CNc2cc(Cl)nn3c(-c4cc5nc(Nc6ccccc6)[nH]c5cc4F)cnc23)CC1 [compound 31, 6-Chloro-3-(6-fluoro-2-(phenylamino)-1H-benzo[d]imidazol-5-yl)-N-((1-methylpiperidin-4-yl)methyl)imidazo[1,2-b]pyridazin-8-amine] | 84% | 82% | 77% | 90% | 77%
